Results taken from US6355799B1, “Substituted benzene compounds, process for their preparation, and herbicidal and defoliant compositions containing them” (ISK Americas Incorporated, priority 1997, dated 2002).

Experiments:
Type in all cases: in vivo
[1] = system: upland rice (Oryza sp., var. Tebonnet, RICE); assay: Post-emerge test, crop safety; settings: post-emerge, 14 days after application, rating scale 0-100
How it was run: (§1)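 Applied at 15–1000 g ai/ha from acetone in 187 l/ha spray volume. Post-emergence applications included 0.25% v/v non-ionic surfactant and reached plants sown 8–21 days before. Pre-emergence applications were incorporated by surface watering. Efficacy or crop damage was rated on a 0–100 scale after 14 days.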

[2] = system: field corn (Zea mays L., var. Dekalb 535, CORN); assay: Post-emerge test, crop safety; settings: post-emerge, 14 days after application, rating scale 0-100
How it was run: as §1

[3] = system: johnsongrass (Sorghum halepense, SORHA); assay: Pre-emerge test, greenhouse herbicide activity screening; settings: pre-emerge, 14 days after application, scale 0-100
How it was run: as §1

[4] = system: velvetleaf (Abutilon theophrasti, ABUTH); assay: as above; settings: pre-emerge, 14 days after application, scale 0-100
How it was run: as §1

[5] = system: barnyardgrass (Echinochloa crus-galli, ECHCG); assay: as above; settings: pre-emerge, 14 days after application, scale 0-100
How it was run: as §1

[6] = system: ivyleaf morningglory (Ipomoea hederacea, IPOHE); assay: as above; settings: pre-emerge, 14 days after application, scale 0-100
How it was run: as §1

[7] = system: lambsquarters (Chenopodium album, CHEAL); assay: as above; settings: pre-emerge, 14 days after application, scale 0-100
How it was run: as §1

[8] = system: large crabgrass (Digitaria sanguinalis, DIGSA); assay: as above; settings: pre-emerge, 14 days after application, scale 0-100
How it was run: as §1

[9] = system: sicklepod (Cassia obtusifolia, CASOB); assay: as above; settings: pre-emerge, 14 days after application, scale 0-100
How it was run: as §1

[10] = system: green foxtail (Setaria viridis, SETVI); assay: as above; settings: pre-emerge, 14 days after application, scale 0-100
How it was run: as §1

[11] = system: johnsongrass (Sorghum halepense, SORHA); assay: Post-emerge test, greenhouse herbicide activity screening; settings: post-emerge, 14 days after application, rating scale 0-100
How it was run: (§2)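 Fourteen days after spraying, crop and weed injury was graded visually from 0, no effect, to 100, every plant dead. Test substances were dissolved in acetone and applied at 15–1000 g ai/ha with a flat-fan nozzle. Application was either pre-emergence, one day after sowing, or post-emergence at the 2–3 leaf stage.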

[12] = system: velvetleaf (Abutilon theophrasti, ABUTH); assay: as above; settings: post-emerge, 14 days after application, rating scale 0-100
How it was run: as §2

[13] = system: barnyardgrass (Echinochloa crus-galli, ECHCG); assay: as above; settings: post-emerge, 14 days after application, rating scale 0-100
How it was run: as §2

[14] = system: ivyleaf morningglory (Ipomoea hederacea, IPOHE); assay: as above; settings: post-emerge, 14 days after application, rating scale 0-100
How it was run: as §2

[15] = system: lambsquarters (Chenopodium album, CHEAL); assay: as above; settings: post-emerge, 14 days after application, rating scale 0-100
How it was run: as §2

[16] = system: large crabgrass (Digitaria sanguinalis, DIGSA); assay: as above; settings: post-emerge, 14 days after application, rating scale 0-100
How it was run: as §2

[17] = system: redroot pigweed (Amaranthus retroflexus, AMARE); assay: as above; settings: post-emerge, 14 days after application, rating scale 0-100
How it was run: as §2

[18] = system: sicklepod (Cassia obtusifolia, CASOB); assay: as above; settings: post-emerge, 14 days after application, rating scale 0-100
How it was run: as §2

[19] = system: green foxtail (Setaria viridis, SETVI); assay: as above; settings: post-emerge, 14 days after application, rating scale 0-100
How it was run: as §2

[20] = system: upland rice (Oryza sp., var. Tebonnet, RICE); assay: Pre-emerge test, crop safety; settings: pre-emerge, 14 days after application, scale 0-100
How it was run: (§3)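 Rating: 0–100 visual injury, 14 DAA. Application: acetone, 187 l/ha, 15–1000 g ai/ha, flat-fan track sprayer with nozzle 40–45 cm above soil or canopy. Post-emerge runs used 0.25% v/v surfactant on 2–3 leaf plants.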

[21] = system: field corn (Zea mays L., var. Dekalb 535, CORN); assay: Pre-emerge test, crop safety; settings: pre-emerge, 14 days after application, scale 0-100
How it was run: as §3

[22] = system: redroot pigweed (Amaranthus retroflexus, AMARE); assay: Pre-emerge test, greenhouse herbicide activity screening; settings: pre-emerge, 14 days after application, scale 0-100
How it was run: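 Compounds in acetone were track-sprayed at 187 l/ha, 15–1000 g ai/ha, onto sandy loam pots. Pre-emerge seeds were sown one day before spraying, with surface watering afterwards. Post-emerge plants were at the 2–3 leaf stage and sprayed with 0.25% v/v non-ionic surfactant. Injury was rated 0–100 at 14 days.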

## COc1cc2ccccc2cc1C(=O)Nc1c(OC)c(Cl)cc(F)c1-n1c(=O)cc(C(F)(F)F)n(C)c1=O [2-152]
[1]; 63 g ai/ha
  RICE phytotoxicity rating (crop damage): 40
[1]; 250 g ai/ha
  RICE phytotoxicity rating (crop damage): 65
[2]; 63 g ai/ha
  CORN phytotoxicity rating (crop damage): 15
[2]; 250 g ai/ha
  CORN phytotoxicity rating (crop damage): 30
[3]; 63 g ai/ha
  phytotoxicity rating SORHA: 0
[3]; 250 g ai/ha
  phytotoxicity rating SORHA: 30
[4]; 63 g ai/ha
  phytotoxicity rating ABUTH: 60
[4]; 250 g ai/ha
  phytotoxicity rating ABUTH: 90
[5]; 63 g ai/ha
  phytotoxicity rating ECHCG: 10
[5]; 250 g ai/ha
  phytotoxicity rating ECHCG: 70
[6]; 63 g ai/ha
  phytotoxicity rating IPOHE: 0
[6]; 250 g ai/ha
  phytotoxicity rating IPOHE: 0
[7]; 63 g ai/ha
  phytotoxicity rating CHEAL: 95
[7]; 250 g ai/ha
  phytotoxicity rating CHEAL: 100
[8]; 63 g ai/ha
  phytotoxicity rating DIGSA: 50
[8]; 250 g ai/ha
  phytotoxicity rating DIGSA: 80
[9]; 63 g ai/ha
  phytotoxicity rating CASOB: 0
[9]; 250 g ai/ha
  phytotoxicity rating CASOB: 50
[10]; 63 g ai/ha
  phytotoxicity rating SETVI: 30
[10]; 250 g ai/ha
  phytotoxicity rating SETVI: 70
[11]; 63 g ai/ha
  SORHA phytotoxicity rating: 20
[11]; 250 g ai/ha
  SORHA phytotoxicity rating: 40
[12]; 63 g ai/ha
  ABUTH phytotoxicity rating: 100
[12]; 250 g ai/ha
  ABUTH phytotoxicity rating: 100
[13]; 63 g ai/ha
  ECHCG phytotoxicity rating: 30
[13]; 250 g ai/ha
  ECHCG phytotoxicity rating: 50
[14]; 63 g ai/ha
  IPOHE phytotoxicity rating: 100
[14]; 250 g ai/ha
  IPOHE phytotoxicity rating: 100
[15]; 63 g ai/ha
  CHEAL phytotoxicity rating: 98
[15]; 250 g ai/ha
  CHEAL phytotoxicity rating: 100
[16]; 63 g ai/ha
  DIGSA phytotoxicity rating: 20
[16]; 250 g ai/ha
  DIGSA phytotoxicity rating: 30
[17]; 63 g ai/ha
  AMARE phytotoxicity rating: 100
[17]; 250 g ai/ha
  AMARE phytotoxicity rating: 100
[18]; 63 g ai/ha
  CASOB phytotoxicity rating: 100
[18]; 250 g ai/ha
  CASOB phytotoxicity rating: 100
[19]; 63 g ai/ha
  SETVI phytotoxicity rating: 30
[19]; 250 g ai/ha
  SETVI phytotoxicity rating: 50
[20]; 63 g ai/ha
  phytotoxicity rating RICE (crop damage): 0
[20]; 250 g ai/ha
  phytotoxicity rating RICE (crop damage): 30
[21]; 63 g ai/ha
  phytotoxicity rating CORN (crop damage): 0
[21]; 250 g ai/ha
  phytotoxicity rating CORN (crop damage): 0
[22]; 63 g ai/ha
  phytotoxicity rating AMARE: 100
[22]; 250 g ai/ha
  phytotoxicity rating AMARE: 100

## COc1c(Cl)cc(F)c(-n2c(=O)cc(C(F)(F)F)n(C)c2=O)c1NC(=O)c1ccc2ccccc2c1OC [2-153]
[1]; 63 g ai/ha
  RICE phytotoxicity rating (crop damage): 0
[1]; 250 g ai/ha
  RICE phytotoxicity rating (crop damage): 10
[2]; 63 g ai/ha
  CORN phytotoxicity rating (crop damage): 5
[2]; 250 g ai/ha
  CORN phytotoxicity rating (crop damage): 5
[3]; 63 g ai/ha
  phytotoxicity rating SORHA: 10
[3]; 250 g ai/ha
  phytotoxicity rating SORHA: 0
[4]; 63 g ai/ha
  phytotoxicity rating ABUTH: 20
[4]; 250 g ai/ha
  phytotoxicity rating ABUTH: 50
[5]; 63 g ai/ha
  phytotoxicity rating ECHCG: 0
[5]; 250 g ai/ha
  phytotoxicity rating ECHCG: 0
[6]; 63 g ai/ha
  phytotoxicity rating IPOHE: 0
[6]; 250 g ai/ha
  phytotoxicity rating IPOHE: 0
[7]; 63 g ai/ha
  phytotoxicity rating CHEAL: 70
[7]; 250 g ai/ha
  phytotoxicity rating CHEAL: 90
[8]; 63 g ai/ha
  phytotoxicity rating DIGSA: 0
[8]; 250 g ai/ha
  phytotoxicity rating DIGSA: 40
[9]; 63 g ai/ha
  phytotoxicity rating CASOB: 0
[9]; 250 g ai/ha
  phytotoxicity rating CASOB: 0
[10]; 63 g ai/ha
  phytotoxicity rating SETVI: 30
[10]; 250 g ai/ha
  phytotoxicity rating SETVI: 90
[11]; 63 g ai/ha
  SORHA phytotoxicity rating: 0
[11]; 250 g ai/ha
  SORHA phytotoxicity rating: 20
[12]; 63 g ai/ha
  ABUTH phytotoxicity rating: 95
[12]; 250 g ai/ha
  ABUTH phytotoxicity rating: 100
[13]; 63 g ai/ha
  ECHCG phytotoxicity rating: 10
[13]; 250 g ai/ha
  ECHCG phytotoxicity rating: 20
[14]; 63 g ai/ha
  IPOHE phytotoxicity rating: 100
[14]; 250 g ai/ha
  IPOHE phytotoxicity rating: 95
[15]; 63 g ai/ha
  CHEAL phytotoxicity rating: 80
[15]; 250 g ai/ha
  CHEAL phytotoxicity rating: 95
[16]; 63 g ai/ha
  DIGSA phytotoxicity rating: 0
[16]; 250 g ai/ha
  DIGSA phytotoxicity rating: 10
[17]; 63 g ai/ha
  AMARE phytotoxicity rating: 60
[17]; 250 g ai/ha
  AMARE phytotoxicity rating: 90
[18]; 63 g ai/ha
  CASOB phytotoxicity rating: 0
[18]; 250 g ai/ha
  CASOB phytotoxicity rating: 30
[19]; 63 g ai/ha
  SETVI phytotoxicity rating: 20
[19]; 250 g ai/ha
  SETVI phytotoxicity rating: 30
[20]; 63 g ai/ha
  phytotoxicity rating RICE (crop damage): 0
[20]; 250 g ai/ha
  phytotoxicity rating RICE (crop damage): 20
[21]; 63 g ai/ha
  phytotoxicity rating CORN (crop damage): 0
[21]; 250 g ai/ha
  phytotoxicity rating CORN (crop damage): 0
[22]; 63 g ai/ha
  phytotoxicity rating AMARE: 100
[22]; 250 g ai/ha
  phytotoxicity rating AMARE: 100
